Legend:
AML cell line MOLM-13 = test: CellTiter-Blue proliferation assay, MOLM-13; type: cell-based; details: Homo sapiens, geometric mean relative IC50, 72 hours, read-out: IC50 range for cell line MOLM-13
Experimental: (§1) Aim of this study was to evaluate compounds of Example 1, 1/1, 2/2, 2/5 and 2/6 in a proliferation assays. The 5 test compounds were tested in a CellTiter-Blue® based proliferation assay in three AML cell lines (HL-60, THP-1 and MOLM-13). The compounds were tested at 10 concentrations in half-log increments (highest concentration 30 μM or 100 μM) in duplicates. The incubation period with the applied compounds was fixed to 72 hours.

FKBP5 mRNA = test: Expression of AR target genes (qRT-PCR) in 22Rv1: FKBP5; type: cell-based; details: Homo sapiens; 22Rv1, 1 μM, 48h; relative to vehicle control (DMSO)
Experimental: (§2) The prostate cancer cell line 22Rv1 was treated for 48h with 1 μM Example compound 1, 1/1, 2/1, 2/2, 2/3, 2/4, 2/5, 2/6, 2/7, 2/8, 2/9 and 2/10 and reference compounds SR2211 and XY018. RNA was extracted using the RNA isolation kit XS (Macherey-Nagel) and following the manufacture's manual. RNA quantity was measured with the Nanodrop before reverse transcription using Superscript II (Invitrogen #100004925). For the quantitative real-time PCR with SYBR-Green (Qiagen #204074), the following primers were used:
(§3) qRT-PCR was performed using SYBR-Green (Qiagen #204074) reagents in a PCR cycler (Gorbett Research) Rotor Gene RG3000 with the following program: denaturation for 5′ at 95° C.; 40 cycles of 20″ at 95° C. and 15″ at 60° C.″ and at the end of the last cycle, the melting temperature of the products was determined by gradually increasing from 60° C. to 99° C. CT values from all samples were normalized to reference (housekeeping) genes using the mean CT value of the GAPDH and YWHAZ (reference genes). Next the values are put relative to the untreated control (vehicle/DMSO).

[1] = system: full length AR (AR-FL) mRNA; test: Androgen receptor RNA level expression (qRT-PCR) in 22Rv1: AR-FL; type: cell-based; details: 22Rv1, 1 μM, 48 h; for mrna remaining at 1 µM: Homo sapiens; for mrna remaining at 1 µM / AR-FL mRNA expression: normalized to untreated control (vehicle/DMSO)
Experimental: (§4) The prostate cancer cell line 22Rv1 was treated for 48 h with 1 μM Example compound 1, 1/1, 1/2, 2/1, 2/2, 2/3, 2/4, 2/5, 2/6, 2/7, 2/8, 2/9 and 2/10 and the reference compounds SR2211 and XY018 (Nat. Med. 2016; 22:488). RNA was extracted using the RNA isolation kit XS (Macherey-Nagel) and following the manufacture's manual. RNA quantity was measured with the Nanodrop before reverse transcription using Superscript II (Invitrogen #100004925). For the quantitative real-time PCR with SYBR-Green (Qiagen #204074), the following primers were used: AR forward-ACATCAAGGAACTCGATCGTATCATTGC and reverse-TTGGGCACTTGCACAGAGAT, AR-V7: forward-CCATCTTGTCGTCTTCGGAAATGTTATGAAGC and reverse-TTTGAATGAGGCAAGTCAGCCTTTCTT. The qRT-PCR proceeded as follows: denaturation for 5 min 95° C.; 40 cycles of “20 sec at 95° C. and 15 sec at 60° C.” and at the end of the last cycle, the melting temperature of the products was determined by gradually increasing it from 60° C. to 99° C. CT values from all samples were normalized to two different reference (housekeeping) genes using the mean CT value of the GAPDH and YWHAZ (reference genes). Next the values are normalized to the untreated control (vehicle/DMSO).

NKX3.1 mRNA = test: Expression of AR target genes (qRT-PCR) in 22Rv1: NKX3.1; type: cell-based; details: Homo sapiens; 22Rv1, 1 μM, 48h; relative to vehicle control (DMSO)
Experimental: as §2, §3

AR-V7 mRNA = test: Androgen receptor RNA level expression (qRT-PCR) in 22Rv1: AR-V7; type: cell-based; details: 22Rv1, 1 μM, 48 h; for mrna remaining at 1 µM: Homo sapiens
Experimental: as §4

AML cell line THP-1 = test: CellTiter-Blue proliferation assay, THP-1; type: cell-based; details: Homo sapiens, geometric mean relative IC50, 72 hours, read-out: IC50 range for cell line THP-1
Experimental: as §1

IL-17A = test: Cytokine assay, human PBMC stimulated with PHA: IL-17A; type: cell-based; details: PHA-activated, 48 hours, read-out: IL-17A inhibition (IC50 range)
Experimental: (§5) Peripheral blood mononuclear cells (PBMC) from healthy human donors were purified using Accuspin™ System-Histopaque-1077 (Sigma) according to the protocol recommended by the manufacturer. Purified PBMC were then washed twice with phosphate-buffered saline (PBS) and resuspended in RPMI1640 culture medium supplemented with 10% dialyzed heat inactivated fetal calf serum, 1.5 mM L-glutamine, 100 U penicillin/mL and […] streptomycin/mL (all from PAN Biotech, Aidenbach, Germany). For stimulation, PBMC were seeded at 1×10^5 cells/well, activated with 2 gg/mL phytohaemagglutinin (PHA, Sigma) and incubated with the test compounds for 48 hours. IL-17A, IL-17F and INFγ were then determined in the culture supernatant using a Luminex BioPlex system, following the manufacturer's instructions (BioRad, Munich, Germany). To determine the IC50, compounds were titrated semilogarithmically.
(§6) Cytokines were determined in the aforementioned culture supernatant using the following methods: IL-17A was measured using the human homodimer IL-17A ELISA Ready Set Go Kit from cBioscience (Frankfurt, Germany); IL-17F using the human IL-17F ELI-Pair from Holzel Diagnostica GmbH (K51n, Germany); and IFNγ using the OptEIA human IFN-g ELISA from BD Bioscience (Heidelberg, Germany), all following the manufacturer's instructions.

AML cell line HL-60 = test: CellTiter-Blue proliferation assay, HL-60; type: cell-based; details: Homo sapiens, geometric mean relative IC50, 72 hours, read-out: IC50 range for cell line HL-60
Experimental: as §1

KLK2 mRNA = test: Expression of AR target genes (qRT-PCR) in 22Rv1: KLK2; type: cell-based; details: 22Rv1, 1 μM; for KLK2 mRNA level expression: 48 h; for mrna remaining at 1 µM: Homo sapiens; for mrna remaining at 1 µM / KLK2 mRNA expression: 48h, relative to vehicle control (DMSO)
Experimental: as §2, §3

IFNγ = test: Cytokine assay, human PBMC stimulated with PHA: IFNγ; type: cell-based; details: PHA-activated, 48 hours, read-out: IFNγ inhibition (IC50 range)
Experimental: as §5, §6

IL-17F = test: Cytokine assay, human PBMC stimulated with PHA: IL-17F; type: cell-based; details: PHA-activated, 48 hours, read-out: IL-17F inhibition (IC50 range)
Experimental: as §5, §6

AR-V7 protein = test: Androgen receptor protein expression (western blot) in 22Rv1: AR-V7; type: cell-based, human; details: 22Rv1, 6 μM, 48 h; western blot quantification
Experimental: (§7) After 48 h, cell were lysed using cell extraction buffer (Life Technologies #FNN0011) for western blot. […] The membrane is then incubation for 1 hour in blocking buffer (5% milk in 20 mM Tris, 150 mM NaCl, pH 7.5, 0.05% Tween 20 [TBS-T]). After this incubation, the primary antibody is added and incubated overnight at 4° C. After washing, the membrane was incubated with the secondary antibody for 1 h. Visualization of the bands was performed using the femto maximum sensitivity substrate reagent and the luminescence signal recorded with the Fusion FX7 (Vilber). For protein quantification, InageJ was used.

AR-FL protein = test: Androgen receptor protein expression (western blot) in 22Rv1: AR-FL; type: cell-based, human; details: 22Rv1, 6 μM, 48 h; western blot quantification
Experimental: as §7

CAMKK2 mRNA = test: Expression of AR target genes (qRT-PCR) in 22Rv1: CAMKK2; type: cell-based; details: 22Rv1, 1 μM, 48h; relative to vehicle control (DMSO)
Experimental: as §2, §3

[2] = system: prostate cancer cell line PC3; test: Oncolead sulforhodamin B growth inhibition, PC3; type: cell-based; details: sulforhodamin B assay; 72 and 120 h treatment; read-out: GI50 range PC3
Experimental: (§8) Cell growth was assessed by measuring protein content using sulforhodamin B. Growth inhibition was calculated by (TCMD−T0)/TNCT72h−T0)*100% with TCMD is the tumor growth at 72 h with the respective compound concentration. To is the protein content of the cell line before treatment and TNCT72h is the tumor growth of the DMSO control.

[3] = system: prostate cancer cell line LNCAP; test: Oncolead sulforhodamin B growth inhibition, LNCAP; type: cell-based; details: Homo sapiens, sulforhodamin B assay, 72 and 120 h treatment, read-out: GI50 range LNCAP
Experimental: as §8

[4] = system: prostate cancer cell line 22RV1; test: Oncolead sulforhodamin B growth inhibition, 22RV1; type: cell-based; details: Homo sapiens, sulforhodamin B assay, 72 and 120 h treatment, read-out: GI50 range 22RV1
Experimental: as §8

[5] = system: prostate cancer cell line VCaP; test: Oncolead sulforhodamin B growth inhibition, VCaP; type: cell-based; details: Homo sapiens, VCaP; sulforhodamin B assay; 72 and 120 h treatment; read-out: GI50 range VCAP
Experimental: as §8

[6] = system: prostate cancer cell line DU145; test: Oncolead sulforhodamin B growth inhibition, DU145; type: cell-based; details: Homo sapiens, DU-145; sulforhodamin B assay; 72 and 120 h treatment; read-out: GI50 range DU145
Experimental: as §8

[7] = normalized to untreated control (vehicle/DMSO)

SMILES	IC50 (AML cell line MOLM-13)	full length AR (AR-FL) mRNA expression [1]	AR-V7 mRNA expression (AR-V7 mRNA)	IC50 (AML cell line THP-1)	IC50 (IL-17A)	IC50 (AML cell line HL-60)	IC50 (IFNγ)	IC50 (IL-17F)	mrna remaining at 1 µM (FKBP5 mRNA)	mrna remaining at 1 µM [1]	mrna remaining at 1 µM (NKX3.1 mRNA)	mrna remaining at 1 µM (AR-V7 mRNA; [7])	KLK2 mRNA level expression (KLK2 mRNA)	mrna remaining at 1 µM (KLK2 mRNA)	other results
C[C@]1(O)C[C@@H](n2ncc(-c3onc(-c4c(F)cccc4Cl)c3-c3ncccn3)c2C(F)(F)F)C1 [2/5]	< 10 nM	strong reduction	strong reduction	< 10 nM	< 25 nM	< 10 nM	< 25 nM	< 25 nM	27.1%	45.4%	30.7%	23.9%	strong inhibition	37.7%	
C[C@]1(O)C[C@@H](n2ncc(-c3onc(-c4ccccc4Cl)c3-c3ncccn3)c2C(F)(F)F)C1 [2/6]	< 10 nM	strong reduction	strong reduction	10 to 100 nM	< 25 nM	< 10 nM	< 25 nM	< 25 nM	33.8%	54.9%	44%	30.4%	strong inhibition	42.8%	
COC(=O)c1c(-c2c(F)cccc2Cl)noc1-c1cnn([C@H]2C[C@@](C)(O)C2)c1C(F)(F)F [Example 2/2]	< 10 nM	strong reduction	strong reduction	10 to 100 nM	< 25 nM	< 10 nM	< 25 nM	< 25 nM	24.6%	38%	25.5%	19.9%	strong inhibition	34.1%	
OC(c1ccc(-c2ccc(CN3CCN(Cc4ccncc4)CC3)cc2)c(F)c1)(C(F)(F)F)C(F)(F)F [SR2211, reference compound]															AR-V7 protein level (AR-V7 protein): 0.728; AR-FL mRNA expression [1]: 1.058; AR-V7 mRNA expression (AR-V7 mRNA; [7]): 1.059; AR-FL protein level (AR-FL protein): 0.675; CAMKK2 mRNA expression (CAMKK2 mRNA): 1.009; KLK2 mRNA expression (KLK2 mRNA): 1.284
O=C(Cc1ccccc1[N+](=O)[O-])Nc1ccc(-c2ccc(C(O)(C(F)(F)F)C(F)(F)F)cc2F)cc1 [XY018, reference compound]															AR-V7 protein level (AR-V7 protein): 0.653; AR-FL mRNA expression [1]: 1.111; AR-V7 mRNA expression (AR-V7 mRNA; [7]): 1.237; AR-FL protein level (AR-FL protein): 0.588; CAMKK2 mRNA expression (CAMKK2 mRNA): 0.959; KLK2 mRNA expression (KLK2 mRNA): 0.831
CNC(=O)c1ccc(N2C(=S)N(c3ccc(C#N)c(C(F)(F)F)c3)C(=O)C2(C)C)cc1F [enzalutamide, reference compound]															GI50 [2]: ≥ 5000 nM; GI50 [3]: 100 to 5000 nM; GI50 [4]: ≥ 5000 nM; GI50 [5]: 100 to 5000 nM; GI50 [6]: ≥ 5000 nM
CC(=O)O[C@H]1C(=O)[C@@]2(C)[C@H]([C@H](OC(=O)c3ccccc3)[C@]3(O)C[C@H](OC(=O)[C@H](O)[C@@H](NC(=O)c4ccccc4)c4ccccc4)C(C)=C1C3(C)C)[C@]1(OC(C)=O)CO[C@@H]1C[C@@H]2O [paclitaxel, reference compound]															GI50 [2]: < 25 nM; GI50 [3]: < 25 nM; GI50 [4]: < 25 nM; GI50 [5]: < 25 nM; GI50 [6]: < 25 nM
